Data reported in publication PMC9948168, “Vanillin-Based Indolin-2-one Derivative Bearing a Pyridyl Moiety as a Promising Anti-Breast Cancer Agent via Anti-Estrogenic Activity” (ACS Omega, 2023).

Experiments:
Assay in all cases: NCI-60 one-dose screening
Format in all cases: cell-based
[1] = tested on: A498; conditions: Homo sapiens, A498, Renal Cancer, read-out: GI (%)
[2] = tested on: BT-549; conditions: Homo sapiens, BT-549, Breast Cancer, read-out: GI (%)
[3] = tested on: CCRF-CEM; conditions: Homo sapiens, Leukemias, read-out: GI (%)
[4] = tested on: COLO 205; conditions: Homo sapiens, COLO 205, Colon Cancer, read-out: GI (%)
[5] = tested on: EKVX; conditions: Homo sapiens, Non-Small Cell Lung Cancer, read-out: GI (%)
[6] = tested on: HCC-2998; conditions: Homo sapiens, HCC-2998, Colon Cancer, read-out: GI (%)
[7] = tested on: HCT-116; conditions: Homo sapiens, HCT-116, Colon Cancer, read-out: GI (%)
[8] = tested on: HL-60(TB); conditions: Homo sapiens, Leukemias, read-out: GI (%)
[9] = tested on: HOP-62; conditions: Homo sapiens, HOP-62, Non-Small Cell Lung Cancer, read-out: GI (%)
[10] = tested on: HOP-92; conditions: Homo sapiens, HOP-92, Non-Small Cell Lung Cancer, read-out: GI (%)
[11] = tested on: HS 578T; conditions: Homo sapiens, Breast Cancer, read-out: GI (%)
[12] = tested on: K-562; conditions: Homo sapiens, K562, K-562, Leukemias, read-out: GI (%)
[13] = tested on: KM12; conditions: Homo sapiens, KM12, Colon Cancer, read-out: GI (%)
[14] = tested on: MALME-3M; conditions: Homo sapiens, Melanoma, read-out: GI (%)
[15] = tested on: MCF7; conditions: Homo sapiens, MCF7, 10 μM; MCF7, Breast Cancer; read-out: GI (%)
[16] = tested on: MDA-MB-231/ATCC; conditions: Homo sapiens, Breast Cancer, read-out: GI (%)
[17] = tested on: MDA-MB-468; conditions: Homo sapiens, MDA-MB-468, Breast Cancer, read-out: GI (%)
[18] = tested on: NCI-H226; conditions: Homo sapiens, NCI-H226, Non-Small Cell Lung Cancer, read-out: GI (%)
[19] = tested on: NCI-H322M; conditions: Homo sapiens, Non-Small Cell Lung Cancer, read-out: GI (%)
[20] = tested on: NCI-H460; conditions: Homo sapiens, NCI-H460, Non-Small Cell Lung Cancer, read-out: GI (%)
[21] = tested on: NCI-H522; conditions: Homo sapiens, NCI-H522, Non-Small Cell Lung Cancer, read-out: GI (%)
[22] = tested on: OVCAR-3; conditions: Homo sapiens, OVCAR-3, 10 μM; OVCAR-3, Ovarian Cancer; read-out: GI (%)
[23] = tested on: OVCAR-5; conditions: Homo sapiens, OVCAR-5, Ovarian Cancer, read-out: GI (%)
[24] = tested on: OVCAR-8; conditions: Homo sapiens, OVCAR-8, Ovarian Cancer, read-out: GI (%)
[25] = tested on: PC-3; conditions: Homo sapiens, PC-3, Prostate Cancer, read-out: GI (%)
[26] = tested on: SF-295; conditions: Homo sapiens, SF-295, CNS Cancer, read-out: GI (%)
[27] = tested on: SK-MEL-2; conditions: Homo sapiens, SK-MEL-2, Melanoma, read-out: GI (%)
[28] = tested on: SK-MEL-5; conditions: Homo sapiens, SK-MEL-5, Melanoma, read-out: GI (%)
[29] = tested on: SN12C; conditions: Homo sapiens, Renal Cancer, read-out: GI (%)
[30] = tested on: SNB-19; conditions: Homo sapiens, SNB-19, CNS Cancer, read-out: GI (%)
[31] = tested on: SNB-75; conditions: Homo sapiens, SNB-75, CNS Cancer, read-out: GI (%)
[32] = tested on: SR; conditions: Homo sapiens, Leukemias, read-out: GI (%)
[33] = tested on: SW-620; conditions: Homo sapiens, SW-620, Colon Cancer, read-out: GI (%)
[34] = tested on: TK-10; conditions: Homo sapiens, TK-10, Renal Cancer, read-out: GI (%)
[35] = tested on: U251; conditions: Homo sapiens, U-251, U251, CNS Cancer, read-out: GI (%)
[36] = tested on: UACC-257; conditions: Homo sapiens, UACC-257, Melanoma, read-out: GI (%)

SMILES | inhibition at 10 µM [1] [%] | inhibition at 10 µM [2] [%] | inhibition at 10 µM [3] [%] | inhibition at 10 µM [4] [%] | inhibition at 10 µM [5] [%] | inhibition at 10 µM [6] [%] | inhibition at 10 µM [7] [%] | inhibition at 10 µM [8] [%] | inhibition at 10 µM [9] [%] | inhibition at 10 µM [10] [%] | inhibition at 10 µM [11] [%] | inhibition at 10 µM [12] [%] | inhibition at 10 µM [13] [%] | inhibition at 10 µM [14] [%] | inhibition at 10 µM [15] [%] | inhibition at 10 µM [16] [%] | inhibition at 10 µM [17] [%] | inhibition at 10 µM [18] [%] | inhibition at 10 µM [19] [%] | inhibition at 10 µM [20] [%] | other results
COc1ccc(COc2ccc(/C=C3/C(=O)Nc4ccccc43)cc2OC)cc1 [6d] | -10.3 | 7.88 | -3.81 | -22.9 | 0.23 | -2.21 | -8.46 | -14.7 | -0.03 | -1 | -5.29 | -0.85 | -3.98 | 0.29 | 6 | 0.09 | -0.39 | -3.18 | -5.76 | -2.81 | inhibition at 10 µM [21]: 6.6%; inhibition at 10 µM [22]: -14.7%; inhibition at 10 µM [23]: 0.08%; inhibition at 10 µM [24]: -0.59%; inhibition at 10 µM [25]: 4.22%; inhibition at 10 µM [26]: -3.32%; inhibition at 10 µM [27]: -8.22%; inhibition at 10 µM [28]: -7.74%; inhibition at 10 µM [29]: 0.36%; inhibition at 10 µM [30]: 2.66%; inhibition at 10 µM [31]: 2.65%; inhibition at 10 µM [32]: -1.92%; inhibition at 10 µM [33]: 0.87%; inhibition at 10 µM [34]: -13.4%; inhibition at 10 µM [35]: -9.05%; inhibition at 10 µM [36]: -15.9%
COc1cc(C=C2C(=O)Nc3ccc(Cl)cc32)ccc1OCc1ccccn1 (mixture of isomers) [6j] | 0.8 | -8.61 | 2.39 | -10.1 | 27 | -6.73 | -2.75 | 3.78 | 5.56 | -0.22 | -2.66 | 5.33 | -0.52 | 1.35 | 63 | 4.62 | 14.6 | 6.59 | 2.99 | -4.56 | inhibition at 10 µM [21]: 4.56%; inhibition at 10 µM [22]: 7.98%; inhibition at 10 µM [23]: 0.34%; inhibition at 10 µM [24]: 3.83%; inhibition at 10 µM [25]: 11.7%; inhibition at 10 µM [26]: 6.2%; inhibition at 10 µM [27]: -9.33%; inhibition at 10 µM [28]: 3.73%; inhibition at 10 µM [29]: 3.96%; inhibition at 10 µM [30]: 8.13%; inhibition at 10 µM [31]: 14.8%; inhibition at 10 µM [32]: 11.5%; inhibition at 10 µM [33]: 2.21%; inhibition at 10 µM [34]: -46.6%; inhibition at 10 µM [35]: 5.39%; inhibition at 10 µM [36]: -5.04%
COc1cc(/C=C2/C(=O)Nc3cc(Cl)ccc32)ccc1OCc1ccccn1 [6o] | -7.62 | 3.31 | -8.83 | -18.8 | 25.3 | -11.7 | 2.05 | -17.3 | 3.58 | -5.39 | -1.2 | 8.79 | 2.85 | 4.92 | 27.7 | 13.4 | -3.25 | 5.24 | 0.51 | -3.23 | inhibition at 10 µM [21]: -1.8%; inhibition at 10 µM [22]: -15.5%; inhibition at 10 µM [23]: 2.11%; inhibition at 10 µM [24]: -2.7%; inhibition at 10 µM [25]: 2.25%; inhibition at 10 µM [26]: -1.12%; inhibition at 10 µM [27]: -8.06%; inhibition at 10 µM [28]: 1.29%; inhibition at 10 µM [29]: -4.12%; inhibition at 10 µM [30]: -1.66%; inhibition at 10 µM [31]: -0.58%; inhibition at 10 µM [32]: 6.43%; inhibition at 10 µM [33]: 0.42%; inhibition at 10 µM [34]: -69.3%; inhibition at 10 µM [35]: -7.72%; inhibition at 10 µM [36]: -22.8%
COc1cc(C=C2C(=O)Nc3ccc(Cl)cc32)ccc1OCc1ccc(Cl)cc1 (mixture of isomers) [6g] | 13.5 | 4.38 | 18.1 | -7.05 | 27.5 | -4.18 | 49 | -1.67 | 13.1 | 27.8 | 2.99 | 10.4 | 3.49 | 18.7 | 54.4 | 21.6 | 17.2 | 17.1 | 22.9 | 50.5 | inhibition at 10 µM [21]: 6.96%; inhibition at 10 µM [22]: 74 to 97%; inhibition at 10 µM [23]: 3.04%; inhibition at 10 µM [24]: 8.51%; inhibition at 10 µM [25]: 22.3%; inhibition at 10 µM [26]: 6.36%; inhibition at 10 µM [27]: -8.12%; inhibition at 10 µM [28]: 8.56%; inhibition at 10 µM [29]: 9.18%; inhibition at 10 µM [30]: 12.8%; inhibition at 10 µM [31]: 28.1%; inhibition at 10 µM [32]: 41.6%; inhibition at 10 µM [33]: 23%; inhibition at 10 µM [34]: -56%; inhibition at 10 µM [35]: 52.1%; inhibition at 10 µM [36]: -8.01%
